Measurements as given in patent publication US20240300923A1, “IRAK4 Inhibitors” (ASTRAZENECA AB, priority 2022, published 2024).
pIC50: −log10 of the molar value.

How the values were obtained:
[1] = biological target: T1, IRAK4 (Homo sapiens (Human), UniProt Q9NWZ3); assay: IRAK4 enzyme assay (mass spectrometry readout); type: biochemical; conditions: human recombinant IRAK4 0.2 nM, 3 mM ATP; geometric mean of at least 2 experiments
Experimental: Potency of IRAK4 Inhibitor Compounds in IRAK4 Enzyme Assay
The inhibitory activity of compounds against IRAK4 were determined in an enzymatic assay using mass spectrometry readout. Ten point half-log compound concentration response curves, with a top concentration of 1 μM or 10 μM, were generated from 10 mM stocks of compound solubilized in DMSO using an Echo 655 (Labcyte Inc) and added to 384 well assay plates (Greiner #781280). To the assay plates, 10 μL of human recombinant IRAK4 protein (Life Technologies #PV4002) diluted to a final concentration of 0.2 nM in assay buffer (50 mM Tris-HCl pH 7.4, 10 mM MgCl, 5 mM glutathione, 0.01% BSA, 3 mM ATP) was added. The enzyme was incubated with the compounds at room temperature for 15 minutes before a peptide substrate ([…], Innovagen custom synthesis, 10 mM in DMSO) was added to each well to a final concentration of 10 μM using an Echo 655 (Labcyte Inc). After two hours at room temperature, the reaction was stopped with 65 μL of 0.4% formic acid (Merck #33015). The unphosphorylated and phosphorylated peptide were measured by LC-MS/MS on a Waters TQ-S mass spectrometer. Peaks were integrated using the TargetLynx software and the ratios between phosphorylated and unphosphorylated peptides were calculated. Curves were fitted and compound potencies determined in Genedata Screener 19 (Genedata AG). IC50 values are the geometric mean of at least 2 experiments.

[2] = biological target: T1, IRAK4; assay: IRAK4 phosphorylation cell assay (IL-1β-stimulated Karpas-299 cells); type: cell-based; conditions: IRAK4 auto-phosphorylation (pIRAK4 Thr345/Ser346) in IL-1β-stimulated Karpas-299 cells; geometric mean of at least 2 experiments
Experimental: IRAK4 Phosphorylation Cell Assay
The activation of IRAK4 by TLR or IL-1R ligands leads to IRAK4 auto-phosphorylation, which can be prevented by IRAK4 kinase inhibitors. The effect of IRAK4 inhibitor compounds on IRAK4 auto-phosphorylation was assessed in IL-1β-stimulated Karpas-299 cells as a measurement of cellular potency. Karpas-299 cells were cultured in RPMI 1640 (Gibco 61870-010) containing 10% FBS (Gibco #10270). Cells were plated at 2×10^4 cells per well in poly-D-lysine coated 384 well plates (Corning #356663) to which compounds had been added at various concentrations (10 point half log dose response with a final top concentration of 30 μM) using an Echo 655 (Labcyte Inc). Cells were centrifuged (250 g, 4 mins), incubated at 37° C. for 1 h, then stimulated with 22.7 ng/mL recombinant IL-1β (R&D Systems, #201-LB-025) at 37° C. for 10 mins, followed by fixation in 4% paraformaldehyde for 20 mins and permeabilization in ice-cold 70% MeOH in PBS for 30 mins. Cells were washed twice with phosphate-buffered saline (PBS) on a BlueWasher (BlueCatBio) then blocked with PBS containing 10% FBS for 20 mins. Blocking solution was removed with a BlueWasher and cells were stained with anti-pIRAK4 (Thr345/Ser346) (CST, #11927, 1:400) in blocking buffer with 0.05% Tween-20 for 1 h, then washed twice with PBS containing 0.05% Tween-20 on a BlueWasher, followed by staining with a Alexa 647-conjugated secondary anti-rabbit IgG antibody (CST, #4414, 1:2,000) and Hoechst 33342 (Sigma, 1:2,000) in blocking buffer with 0.05% Tween-20 for 30 mins. Finally, the cells were washed twice with PBS containing 0.05% Tween-20 and imaged on an ImageXpress Micro (Molecular Devices) with a 10× air objective using the appropriate filters. Images were analysed in Columbus (PerkinElmer) and the fluorescence intensity per cell from the secondary antibody was quantified. The quantified data were analysed in Genedata Screener 19 (Genedata AG). […] IC50 values are the geometric mean of at least 2 experiments.

[3] = biological target: human cKit kinase (Homo sapiens (Human), UniProt P10721); assay: cKit enzyme assay (LANCE, Eurofins CEREP); type: biochemical; conditions: human recombinant enzyme, 50 μM ATP; geometric mean of at least n=2, * = single experiment
Experimental: Potency of IRAK4 Inhibitor Compounds in cKit Enzyme Assay
Evaluation of the effects of the IRAK4 inhibitor compounds on the activity of the human cKit kinase quantified by measuring the phosphorylation of the substrate Ulight-TK peptide using a human recombinant enzyme and the LANCE® detection method at Eurofins CEREP, catalog item 3070, SOP no 1C768: The test compound, reference compound or water (control) are mixed with the enzyme (0.38 ng) in a buffer containing 40 mM Hepes/Tris (pH 7.4), 0.8 mM EGTA/Tris, 8 mM MgCl2, 1.6 mM DTT and 0.008% Tween 20. Thereafter, the reaction is initiated by adding 100 nM of the substrate Ulight-TK peptide and 50 μM ATP, and the mixture is incubated for 30 min at room temperature. For control basal measurements, the enzyme is omitted from the reaction mixture. Following incubation, the reaction is stopped by adding 13 mM EDTA. After 5 min, the anti-phopho-PT66 antibody labeled with europium chelate is added. After 60 more min, the fluorescence transfer is measured at lex=337 nm, lem=620 nm and lem=665 nm using a microplate reader (Envision, Perkin Elmer). The enzyme activity is determined by dividing the signal measured at 665 nm by that measured at 620 nm (ratio). The results are expressed as a percent inhibition of the control enzyme activity. The standard inhibitory reference compound is staurosporine, which is tested in each experiment at several concentrations to obtain an inhibition curve from which its IC50 value is calculated.
Data presented are the geometric mean of at least n=2, or as denoted by an*are obtained from a single experiment. […] Kinase selectivity can be a key determinant of clinical utility as off target toxicity can be reduced or eliminated.

Sequence of human cKit kinase (P10721 26-976): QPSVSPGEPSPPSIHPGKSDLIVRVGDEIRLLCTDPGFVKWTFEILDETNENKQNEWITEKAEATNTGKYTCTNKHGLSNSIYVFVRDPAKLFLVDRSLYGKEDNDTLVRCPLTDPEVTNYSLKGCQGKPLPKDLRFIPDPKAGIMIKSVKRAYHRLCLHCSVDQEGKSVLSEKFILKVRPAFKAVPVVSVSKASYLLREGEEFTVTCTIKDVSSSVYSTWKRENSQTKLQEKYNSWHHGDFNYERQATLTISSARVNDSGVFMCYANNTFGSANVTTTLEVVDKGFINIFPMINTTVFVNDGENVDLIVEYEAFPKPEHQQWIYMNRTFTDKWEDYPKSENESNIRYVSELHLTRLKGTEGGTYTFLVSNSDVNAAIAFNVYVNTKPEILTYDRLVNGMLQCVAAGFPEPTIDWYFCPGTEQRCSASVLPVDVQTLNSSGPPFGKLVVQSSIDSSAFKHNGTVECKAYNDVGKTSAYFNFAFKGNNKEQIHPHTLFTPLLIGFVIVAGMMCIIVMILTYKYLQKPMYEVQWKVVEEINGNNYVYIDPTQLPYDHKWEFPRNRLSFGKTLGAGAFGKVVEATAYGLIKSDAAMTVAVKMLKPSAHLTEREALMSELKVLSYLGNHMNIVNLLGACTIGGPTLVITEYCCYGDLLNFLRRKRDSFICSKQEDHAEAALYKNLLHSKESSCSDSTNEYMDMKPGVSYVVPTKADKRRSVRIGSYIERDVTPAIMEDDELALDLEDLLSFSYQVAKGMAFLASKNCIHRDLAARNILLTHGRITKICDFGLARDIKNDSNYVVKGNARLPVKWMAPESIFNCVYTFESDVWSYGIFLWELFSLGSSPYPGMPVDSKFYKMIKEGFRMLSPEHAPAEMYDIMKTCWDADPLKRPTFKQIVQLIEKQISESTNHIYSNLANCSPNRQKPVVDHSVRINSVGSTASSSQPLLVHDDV
T1 sequence (Q9NWZ3 whole entry): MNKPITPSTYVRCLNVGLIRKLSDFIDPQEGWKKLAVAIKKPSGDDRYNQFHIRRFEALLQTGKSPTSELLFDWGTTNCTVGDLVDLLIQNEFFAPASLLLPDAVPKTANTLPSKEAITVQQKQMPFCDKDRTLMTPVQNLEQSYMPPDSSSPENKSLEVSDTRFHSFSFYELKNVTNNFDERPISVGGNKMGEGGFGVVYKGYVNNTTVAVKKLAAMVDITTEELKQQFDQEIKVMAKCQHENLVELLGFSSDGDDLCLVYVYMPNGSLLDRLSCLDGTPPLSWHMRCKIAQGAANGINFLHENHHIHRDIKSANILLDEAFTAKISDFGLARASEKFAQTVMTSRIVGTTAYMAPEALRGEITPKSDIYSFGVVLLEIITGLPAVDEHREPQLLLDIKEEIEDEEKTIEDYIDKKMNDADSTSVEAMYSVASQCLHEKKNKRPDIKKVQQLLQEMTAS

Row | SMILES | pIC50 [1] | pIC50 [2] | pIC50 [3]
1 | COc1cc2nn([C@H]3CC[C@H](N(C)C(=O)[C@@H](C)O)CC3)cc2cc1C(=O)Nc1cccn(C2CC2)c1=O [Example 12, N-(1-Cyclopropyl-2-oxo-1,2-dihydropyridin-3-yl)-2-((1R,4r)-4-((R)-2-hydroxy-N-methylpropanamido)cyclohexyl)-6-methoxy-2H-indazole-5-carboxamide] | 9.22 | 7.62 | 4.24
2 | COc1cc2nn([C@H]3CC[C@H](N(C)C(=O)[C@@H](C)O)CC3)cc2cc1C(=O)Nc1cccn(C2COC2)c1=O [Example 13, 2-((1R,4r)-4-((R)-2-Hydroxy-N-methylpropanamido)cyclohexyl)-6-methoxy-N-(1-(oxetan-3-yl)-2-oxo-1,2-dihydropyridin-3-yl)-2H-indazole-5-carboxamide] | 9.15 | 7.52 | < 4.30
3 | COc1cc2nn([C@H]3CC[C@H](N(C)C(=O)[C@@H](C)O)CC3)cc2cc1C(=O)Nc1cccn(-c2cnn(C)c2)c1=O [Example 15, 2-((1R,4r)-4-((R)-2-Hydroxy-N-methylpropanamido)cyclohexyl)-6-methoxy-N-(1-(1-methyl-1H-pyrazol-4-yl)-2-oxo-1,2-dihydropyridin-3-yl)-2H-indazole-5-carboxamide] | 9.05 | 7.46 | 5.57
4 | COc1cc2nn([C@H]3CC[C@H](N(C)C(=O)[C@@H](C)O)CC3)cc2cc1C(=O)Nc1cccn(-c2cn(C)nn2)c1=O [Example 16, 2-((1R,4r)-4-((R)-2-Hydroxy-N-methylpropanamido)cyclohexyl)-6-methoxy-N-(1-(1-methyl-1H-1,2,3-triazol-4-yl)-2-oxo-1,2-dihydropyridin-3-yl)-2H-indazole-5-carboxamide] | 9.00 | 7.48 | 5.85
5 | COc1cc2nn([C@H]3CC[C@H](N(C)C(=O)[C@@H](C)O)CC3)cc2cc1C(=O)Nc1cccn(-c2cnn(C)n2)c1=O [Example 17, 2-((1R,4r)-4-((R)-2-Hydroxy-N-methylpropanamido)cyclohexyl)-6-methoxy-N-(1-(2-methyl-2H-1,2,3-triazol-4-yl)-2-oxo-1,2-dihydropyridin-3-yl)-2H-indazole-5-carboxamide] | 8.96 | 7.47 | < 4.00
6 | COc1cc2nn([C@H]3CC[C@H](N4CCCC4=O)CC3)cc2cc1C(=O)Nc1cccn(C)c1=O [Example 18, 6-Methoxy-N-(1-methyl-2-oxo-1,2-dihydropyridin-3-yl)-2-((1r,4r)-4-(2-oxopyrrolidin-1-yl)cyclohexyl)-2H-indazole-5-carboxamide] | 9.00 | 7.49 | 5.62
7 | COc1cc2nn([C@H]3CC[C@H](N4CCN(C)C4=O)CC3)cc2cc1C(=O)Nc1cccn(C)c1=O [Example 19, 6-Methoxy-N-(1-methyl-2-oxo-1,2-dihydropyridin-3-yl)-2-((1r,4r)-4-(3-methyl-2-oxoimidazolidin-1-yl)cyclohexyl)-2H-indazole-5-carboxamide] | 9.05 | 7.47 | 4.97
8 | COc1cc2nn([C@H]3CC[C@H](n4ccccc4=O)CC3)cc2cc1C(=O)Nc1cccn(C)c1=O [Example 22, 6-Methoxy-N-(1-methyl-2-oxo-1,2-dihydropyridin-3-yl)-2-((1r,4r)-4-(2-oxopyridin-1(2H)-yl)cyclohexyl)-2H-indazole-5-carboxamide] | 9.30 | 7.59 | 4.58
9 | COc1cc2nn([C@H]3CC[C@H](c4nnco4)CC3)cc2cc1C(=O)Nc1cccn(C)c1=O [Example 25, 2-((1r,4r)-4-(1,3,4-Oxadiazol-2-yl)cyclohexyl)-6-methoxy-N-(1-methyl-2-oxo-1,2-dihydropyridin-3-yl)-2H-indazole-5-carboxamide] | 8.77 | 7.35 | < 4.00
